According to patent US4820695A, “C-20-dihydro-deoxy-(cyclic amino)-derivatives of macrolide antibiotics” (priority 1987, dated 1989):
≈ marks a conversion by molar mass, not a printed value. Where two headings read alike, the source gives them in different places.

Tests used:
[1] = system: Staphyloccus aureus X1.1; experiment: MIC, standard agar-dilution assay (Table IX); format: cell-based, Staphylococcus aureus; conditions: Staphylococcus aureus, read-out: MIC
[2] = system: Staphylococcus aureus V41; experiment: MIC, standard agar-dilution assay (Table IX); format: cell-based; conditions: Staphylococcus aureus V41, Penicillin-resistant strain, read-out: MIC
[3] = system: Staphylococcus aureus X400; experiment: MIC, standard agar-dilution assay (Table IX); format: cell-based; conditions: Staphylococcus aureus X400, Methicillin-resistant strain, read-out: MIC
[4] = system: Staphylococcus aureus S13E; experiment: MIC, standard agar-dilution assay (Table IX); format: cell-based; conditions: Staphylococcus aureus, S13E
[5] = system: Staphylococcus epidermidis EPI1; experiment: MIC, standard agar-dilution assay (Table IX); format: cell-based; conditions: Staphylococcus epidermidis EPI1; agar-dilution; read-out: MIC
[6] = system: Staphylococcus epidermidis 222; experiment: MIC, standard agar-dilution assay (Table IX); format: cell-based; conditions: read-out: MIC
[7] = system: Streptococcus pyogenes C203; experiment: MIC, standard agar-dilution assay (Table IX); format: cell-based; conditions: read-out: MIC
[8] = system: Streptococcus pneumoniae Park I; experiment: MIC, standard agar-dilution assay (Table IX); format: cell-based; conditions: Streptococcus pneumoniae Park I; agar-dilution; read-out: MIC
[9] = system: Streptococcus Group D X66; experiment: MIC, standard agar-dilution assay (Table IX); format: cell-based; conditions: read-out: MIC
[10] = system: Streptococcus Group D 2041; experiment: MIC, standard agar-dilution assay (Table IX); format: cell-based; conditions: GROUPD2041, read-out: MIC
[11] = system: Haemophilus influenzae C.L.; experiment: MIC, standard agar-dilution assay (Table IX); format: cell-based; conditions: Ampicillin-sensitive strain, read-out: MIC
[12] = system: Haemophilus influenzae 76; experiment: MIC, standard agar-dilution assay (Table IX); format: cell-based; conditions: Haemophilus influenzae 76, Ampicillin-resistant strain, read-out: MIC
[13] = system: Escherichia coli N10; experiment: MIC, standard agar-dilution assay (Table IX); format: cell-based; conditions: read-out: MIC
[14] = system: Escherichia coli EC14; experiment: MIC, standard agar-dilution assay (Table IX); format: cell-based; conditions: read-out: MIC
[15] = system: Escherichia coli TEM; experiment: MIC, standard agar-dilution assay (Table IX); format: cell-based; conditions: read-out: MIC
[16] = system: Klebsiella X26; experiment: MIC, standard agar-dilution assay (Table IX); format: cell-based; conditions: read-out: MIC
[17] = system: Mycoplasma gallisepticum 29C; experiment: MIC, broth-dilution microtiter test (Table X); format: cell-based; conditions: Mycoplasmoides gallisepticum, read-out: MIC
Excerpt: (§1) The MIC's in Table X were obtained using conventional broth-dilution microtiter tests.

[18] = system: Mycoplasma hyopneumoniae S5972; experiment: MIC, broth-dilution microtiter test (Table X); format: cell-based; conditions: Mesomycoplasma hyopneumoniae, read-out: MIC
Excerpt: as §1

[19] = system: Mycoplasma hyorhinis 29E; experiment: MIC, broth-dilution microtiter test (Table X); format: cell-based; conditions: read-out: MIC
Excerpt: as §1

[20] = system: Mycoplasma synoviae 40A; experiment: MIC, broth-dilution microtiter test (Table X); format: cell-based; conditions: Mycoplasmopsis synoviae, read-out: MIC
Excerpt: as §1

[21] = system: Pasteurella hemolytica 22C; experiment: MIC, broth-dilution microtiter test (Table X); format: cell-based; conditions: read-out: MIC
Excerpt: as §1

[22] = system: Pasteurella multocida 17E; experiment: MIC, broth-dilution microtiter test (Table X); format: cell-based; conditions: Bovine isolate, read-out: MIC
Excerpt: as §1

[23] = system: Pasteurella multocida 60A; experiment: MIC, broth-dilution microtiter test (Table X); format: cell-based; conditions: Avian isolate, read-out: MIC
Excerpt: as §1

[24] = system: Staphylococcus aureus; experiment: MIC, broth-dilution microtiter test (Table X); format: cell-based; conditions: read-out: MIC
Excerpt: as §1

[25] = system: Streptococcus sp. 19F; experiment: MIC, broth-dilution microtiter test (Table X); format: cell-based; conditions: read-out: MIC
Excerpt: as §1

[26] = system: Streptococcus pyogenes C203; experiment: ED50 in mice experimentally infected with S. pyogenes C203 (Table XI); format: in vivo; conditions: Streptococcus pyogenes, doses given 1 and 4 hours postinfection, read-out: ED50
Procedure: The C-20 modified derivatives of this invention have shown in vivo antimicrobial activity against experimentally-induced infections in laboratory animals. When two doses of test compound were administered to mice experimentally infected with S. pyogenes C203, the activity observed was measured as an ED50 value [effective dose in mg/kg to protect 50% of the test animals: see Warren Wick, et al., J. Bacteriol. 81, 233-235 (1961)].
^a mg/kg × 2; doses given 1 and 4 hours postinfection

[27] = system: Pasteurella multocida; experiment: Pasteurella infection in one-day-old chicks, subcutaneous administration (Table XII); format: in vivo; conditions: Administered subcutaneously, 30 mg/kg × 2, 1 and 4 hours post-challenge
Procedure: Many of the C-20 modified derivatives of this invention have also shown in vivo antibacterial activity against infections induced by gram-negative bacteria. Tables XII and XIII summarize the results of tests in which illustrative compounds were evaluated against a Pasteurella infection in one-day-old chicks. The compounds were administered parenterally or orally after challenge of the chicks with Pasteurella multocida (0.1 ml of a 10^-4 dilution of a twenty-hour tryptose broth culture of an avian P. multocida given subcutaneously). In these tests, unless indicated otherwise, all non-medicated infected chicks died within 24 hours of Pasteurella challenge. In the tests summarized in Table XII, the compounds were administered by subcutaneous injection at a dosage of 30 mg/kg, 1 and 4 hours post-challenge of the chicks with P. multocida. In the tests summarized in Table XIII the compounds were administered in medicated drinking water (at a level of 2 g/gal) available from 4 to 20 hours prior to challenge of the chicks with P. multocida and during the 3 -day test period.
^a Administered subcutaneously; 30 mg/kg × 2

| SMILES | MIC [1] [µg/mL] | MIC [2] [µg/mL] | MIC [3] [µg/mL] | MIC [4] [µg/mL] | MIC [5] [µg/mL] | MIC [6] [µg/mL] | MIC [7] [µg/mL] | MIC [8] [µg/mL] | MIC [9] [µg/mL] | MIC [10] [µg/mL] | MIC [11] [µg/mL] | MIC [12] [µg/mL] | MIC [13] [µg/mL] | MIC [14] [µg/mL] | MIC [15] [µg/mL] | MIC [16] [µg/mL] | MIC [17] [µg/mL] | MIC [18] [µg/mL] | MIC [19] [µg/mL] | MIC [20] [µg/mL] | other results |
| --- | --- | --- | --- | --- | --- | --- | --- | --- | --- | --- | --- | --- | --- | --- | --- | --- | --- | --- | --- | --- | --- |
| CCC1OC(=O)CC(O)C(C)C(OC2OC(C)C(O)C(N(C)C)C2O)C(CCN2CC=C(c3ccccc3)CC2)CC(C)C(=O)C=CC(C)=CC1COC1OC(C)C(O)C(OC)C1OC (centres unmarked) [Compound D26, 20-DH-DO-20-(4-phenyl-1,2,3,6-tetrahydropyridin-1-yl)desmycosin] | 0.5 (≈ 0.546 µM) | 0.5 (≈ 0.546 µM) | 0.5 (≈ 0.546 µM) | 0.5 (≈ 0.546 µM) | 0.5 (≈ 0.546 µM) | 0.25 (≈ 0.273 µM) | 0.25 (≈ 0.273 µM) | 0.25 (≈ 0.273 µM) | 1 (≈ 1.09 µM) | 2 (≈ 2.19 µM) | 32 (≈ 35 µM) | 8 (≈ 8.74 µM) | 128 (≈ 140 µM) | 128 (≈ 140 µM) | 32 (≈ 35 µM) | 64 (≈ 69.9 µM) | ≤ 0.048 | 0.78 (≈ 0.852 µM) | 25 (≈ 27.3 µM) | 0.78 (≈ 0.852 µM) | MIC [21]: 12.5 µg/mL (≈ 13.7 µM); MIC [22]: 6.25 µg/mL (≈ 6.83 µM); MIC [23]: 12.5 µg/mL (≈ 13.7 µM); MIC [24]: 3.12 µg/mL (≈ 3.41 µM); MIC [25]: 0.78 µg/mL (≈ 0.852 µM); ED50 ([26]; C203, Oral): 12.5 mg/kg; ED50 ([26]; C203, sc, Subcutaneous): 5.61 mg/kg; Number of Deaths/Number Treated [27]: 10/10 |
| CCC1OC(=O)CC(O)C(C)C(OC2OC(C)C(O)C(N(C)C)C2O)C(CCN2CCC(Cc3ccccc3)CC2)CC(C)C(=O)C=CC(C)=CC1COC1OC(C)C(O)C(OC)C1OC (centres unmarked) [Compound D27, 20-DH-DO-20-(4-benzyl-piperidin-1-yl)desmycosin] | 1 (≈ 1.07 µM) | 1 (≈ 1.07 µM) | 1 (≈ 1.07 µM) | 1 (≈ 1.07 µM) | 1 (≈ 1.07 µM) | 0.25 (≈ 0.268 µM) | 0.25 (≈ 0.268 µM) | 0.5 (≈ 0.537 µM) | 2 (≈ 2.15 µM) | 4 (≈ 4.3 µM) | 32 (≈ 34.4 µM) | 16 (≈ 17.2 µM) | 128 (≈ 137 µM) | 128 (≈ 137 µM) | 32 (≈ 34.4 µM) | 64 (≈ 68.7 µM) | ≤ 0.048 | 0.39 (≈ 0.419 µM) | 25 (≈ 26.8 µM) | ≤ 0.048 | MIC [21]: 12.5 µg/mL (≈ 13.4 µM); MIC [22]: 6.25 µg/mL (≈ 6.71 µM); MIC [23]: 12.5 µg/mL (≈ 13.4 µM); MIC [24]: 3.12 µg/mL (≈ 3.35 µM); MIC [25]: 0.78 µg/mL (≈ 0.838 µM); ED50 ([26]; C203, Oral): 16.5 mg/kg; ED50 ([26]; C203, sc, Subcutaneous): 3.81 mg/kg; Number of Deaths/Number Treated [27]: 8/10 |
